{"source": "patent US8466185B2", "about": "“Methods and assays for detecting and treating hypoglycemia” (priority 2008, dated 2013)", "key": {"human islets [1]": {"tested_on": "human islets", "assay": "in vitro perifusion, glucagon secretion from human islets", "type": "cell-based", "settings": "for glucagon release / glucagon secretion: agonist 100 μM, 3 mM glucose", "protocol": "(§2) A high-capacity, automated perifusion system was developed to dynamically measure hormone secretion from pancreatic islets. A low pulsatility peristaltic pump pushed HEPES-buffered solution (mM: 125 NaCl, 5.9 KCl, 2.56 CaCl2, 1 MgCl2, 25 HEPES, and 0.1% BSA; pH 7.4; and a perifusion rate of 100 μL/min) through a column containing 100 pancreatic islets immobilized in Bio-Gel P-4 Gel (BioRad, Hercules, Calif.). Except otherwise stated, glucose concentration was adjusted to 3 mM for all experiments. Stimuli were applied with the perifusion buffer. The perifusate was collected in an automatic fraction collector designed for a 96 well plate format. The columns containing the islets and the perifusion solutions were kept at 37° C., and the perifusate in the collecting plate was kept at <4° C. Perifusates were collected every minute. Hormone release in the perifusate was determined with the human or mouse Endocrine LINCOplex Kit following manufacturer's instructions (Linco research, St. Charles, Mo.)."}, "[2]": {"tested_on": "human islets and dispersed single islet cells", "assay": "[Ca^2+]i imaging (Fura-2) of human islets and dispersed islet cells", "type": "cell-based", "settings": "for [Ca^2+]i response: 100 μM", "experimental": "(§1) Glucose was added to give a final concentration of 3 mM. Islets or dispersed islet cells were incubated in Fura-2 AM (2 μM; 1 hour) and placed in a closed small-volume imaging chamber (Warner Instruments, Hamden, Conn.). Stimuli were applied with the bathing solution. Islets loaded with Fura-2 were excited alternatively at 340 and 380 nm with a monochromator light source (Cairn. Research Optoscan Monochromator, Cairn Research Ltd, Faversham, UK). Images were acquired with a Hamamatsu camera (Hamamatsu Corp, Japan) attached to a Zeiss Axiovert 200 microscope (Carl Zeiss, Jena, Germany). Changes in the 340/380 fluorescence emission ratio over time were analyzed in individual islets and dispersed cells using Kinetic Imaging AQM Advance software (Kinetic Imaging, N.C.). Peak changes in the fluorescence ratio constituted the response amplitude."}, "[3]": {"tested_on": "monkey islets and dispersed single islet cells", "assay": "[Ca^2+]i imaging (Fura-2) of monkey islets and islet cells", "type": "cell-based, monkey (Macacca fascicularis)", "settings": "glutamate 100 μM", "experimental": "as §1, with “Imaging of [Ca^2+]i was performed as described elsewhere (Cabrera et al., 2006). […] Glucose” for “Glucose”"}, "human islets [4]": {"tested_on": "human islets", "type": "cell-based", "settings": "glutamate 100 μM", "experimental": "Perifusion of the islets was stopped after addition of the stimulus to allow the islet secretory products to accumulate and then resumed after 10 minutes."}, "mouse islets [5]": {"tested_on": "mouse islets", "assay": "perifusion, glucagon secretion from mouse islets", "type": "cell-based, mouse (C57Bl/6)", "settings": "for glucagon release / secretion: 100 μM", "protocol": "as §2"}, "C57BL/6 mice": {"tested_on": "C57BL/6 mice", "assay": "in vivo responses to iGluR agonists injected i.p.", "parameters": "species or system mouse", "settings": "glutamate 30 mg/kg, AMPA 15 mg/kg, i.p.", "experimental": "We examined in vivo responses to iGluR agonists by injecting C57BL/6 mice i.p. with either PBS (n=4), monosodium glutamate (30 mg/kg; n=7), or AMPA (15 mg/kg; n=8). To determine whether blocking iGluRs exacerbates insulin-induced hypoglycemia, we injected the AMPA/kainate iGluR antagonist NBQX (Tocris, Ellisville, Mo.) i.p. at 20 mg/kg 30 minutes before mice were treated with insulin to induce hypoglycemia."}, "[6]": {"settings": "Beyreuther et al., 2007; cited from earlier work"}, "human islets [7]": {"tested_on": "human islets", "assay": "in vitro perifusion, insulin release from human islets", "settings": "100 μM", "protocol": "as §2"}, "monkey islets [8]": {"tested_on": "monkey islets", "assay": "in vitro perifusion, insulin release from monkey islets", "settings": "100 μM; not shown"}, "[9]": {"tested_on": "isolated human islet cells", "assay": "whole-cell patch clamp recordings of dispersed human islet cells", "type": "cell-based", "settings": "kainate 100 μM; holding potential −70 mV", "experimental": "Membrane currents were measured using whole-cell patch clamp recordings of dispersed human islet cells. All recordings were amplified using an EPC10 patch-clamp amplifier and digitized and analyzed using Patchmaster software (Heka Elektronik, Lambrecht, Germany). Pipettes were pulled from borosilicate glass capillaries on a horizontal programmable puller (DMZ Universal Puller, Zeitz-Instrumente, Augsburg, Germany). Pipettes with a resistance of 5-7 MΩ were filled with a pipette solution containing (in mM): 150 NMG (N-methyl-D-Glucamine), 10 EGTA, 1 MgCl2, 2 CaCl2, 5 HEPES and 3 Mg-ATP (pH 7.15). The bath solution contained (in mM): 138 NaCl, 5.6 KCl, 1.2 MgCl2, 2.6 CaCl2, 5 HEPES and 10 TEA (pH7.4). Cells were voltage-clamped at −70 mV. Ligands (e.g. kainate) were applied using the SF-77B Perfusion Fast-Step system (Warner Instruments, Hamden, Conn.), which allows rapid change of solutions bathing a single cell or membrane patch attached to a patch electrode. […] Thus, it is most likely that cells responding to kainate in our electrophysiological experiments were α-cells."}, "monkey islets [10]": {"tested_on": "monkey islets", "assay": "microfluorometric determination of endogenous glutamate release from islets", "type": "cell-based", "settings": "kainate 100 μM; KCl 30 mM", "experimental": "Endogenous glutamate release from pancreatic islets was measured with the Amplex Red Glutamic Acid Assay Kit (Molecular Probes) adapted for microscopic microfluorometric detection (Akagi et al., 2003). In this assay, released glutamate is a substrate in an enzymatic chain reaction that generates the highly fluorescent product resorufin (Molecular Probes, Eugene, Oreg.). L-glutamate is oxidized by glutamate oxidase to produce α-ketoglutarate, NH4, and H2O2. Hydrogen peroxide reacts with the Amplex Red reagent in a reaction catalyzed by horseradish peroxidase to generate resorufin. Pancreatic islets were allowed to attach to a glass coverslip previously coated with poly-D-lysine. The coverslip was mounted in a closed small-volume imaging chamber (Warner Instruments) and perifused with the HEPES-buffered solution containing the stimuli. Resorufin fluorescence was excited at 510 nm, and the emission recorded at 590 nm using the same imaging system used to measure [Ca^2+]i (see above)."}, "mouse islets [11]": {"tested_on": "mouse islets", "assay": "perifusion of mouse islets with β cells destroyed by streptozotocin versus intact islets", "type": "cell-based", "settings": "streptozotocin-treated versus intact islets", "experimental": "This experiment was performed with mouse islets. Two samples were perifused in parallel (“a” and “b”). In “a” (blue curve and blue bar), but not in “b” (red curve and red bar) the β cells were selectively destroyed with streptozotocin. This absence of β cells generates type 1 diabetes-like condition in vitro. The glucagon release profile in panel “A” was obtained by using this model. […] Note that the non specific stimulus arginine is not able to differentiate a functionally impaired α cell in the absence of β cells.\nAt t=5 min, both samples were stimulated with 100 μM kainate for 5 min. The glucose was increased to 11 mM for 10 minutes and decreased again to 3 mM for the duration of the perifusion. At t=45 min, both samples (v) were stimulated with 5 mM Arginine. […] Kainate is a glutamate analog that is not metabolizable, and therefore a preferred agonist of the AMPA/Kainate receptors. Error bars represent the standards deviations for n=3 perifusions. Comparison were performed by an independent t-test.\nFor example, in some embodiments the present invention are directed to an in vitro model in which we destroy selectively the beta cells with, for example, streptozotocin, thus creating a situation that mimics type 1 diabetes. The treated islets are composed mainly of alpha cells. […] To examine if alpha cells in islets depleted of beta cells had impaired glutamate signaling, we stimulated them with kainate, an agonist for ionotropic glutamate receptors."}}, "note": "“Also recorded” adds a separate entry of the source."}
{"molecule": "N[C@@H](CCC(=O)O)C(=O)O", "note": "[glutamate]", "values": [{"measurement": "glucagon release / glucagon secretion", "setting": "human islets [1]", "result": "induced glucagon responses"}, {"measurement": "glucagon release", "setting": "human islets [1]; glutamate 1 μM-1 mM", "result": "stimulated large, concentration-dependent increases in glucagon release"}, {"measurement": "cells responding to high glucose (11 mM) that did not respond to glutamate", "setting": "[2]", "result": "64 out of 64"}, {"measurement": "[Ca^2+]i response", "setting": "[2]", "result": "elicited concentration-dependent [Ca^2+]i; responses; also recorded: increases in cytoplasmic free Ca^2+ concentration"}, {"measurement": "glutamate-responsive cells that were glucagon-immunoreactive", "setting": "[2]; n=4 human preparations", "result": "34 out of 37"}, {"measurement": "[Ca^2+]i response", "setting": "[3]", "result": "increases in cytoplasmic free Ca^2+ concentration"}, {"measurement": "glucagon secretion from human islets measured by [Ca^2+]i responses in biosensor cells", "setting": "human islets [4]; islets on biosensor cells", "result": "large [Ca^2+]i responses; also recorded: elicited glucagon secretion from human islets"}, {"measurement": "[Ca^2+]i response of biosensor cells in the absence of islets", "setting": "human islets [4]; no islets", "result": "did not respond; also recorded: No responses were seen"}, {"measurement": "glucagon release / secretion", "setting": "mouse islets [5]", "result": "stimulated glucagon release"}, {"measurement": "glucagon responses to glutamate in islets from mGluR4 knockout versus control mice", "setting": "mouse islets [5]; glutamate 100 μM", "result": "undistinguishable in wild type and mGluR4KO mice"}, {"measurement": "plasma insulin concentrations", "setting": "C57BL/6 mice", "result": "not affected; also recorded: did not change"}, {"measurement": "plasma glucagon concentrations", "setting": "C57BL/6 mice; 30 minutes after treatment", "result": "increased plasma glucagon concentrations"}, {"measurement": "plasma glucose concentrations", "setting": "C57BL/6 mice; thirty minutes after injection", "result": "increased glucose levels"}, {"measurement": "blood-brain barrier penetration", "setting": "[6]", "result": "does not penetrate the blood-brain barrier"}, {"measurement": "insulin release", "setting": "human islets [7]", "result": "Neither kainate (100 μM), glutamate (100 μM), nor AMPA (100 μM) stimulated increases in insulin release"}, {"measurement": "insulin release", "setting": "monkey islets [8]", "result": "Neither kainate (100 μM), glutamate (100 μM), nor AMPA (100 μM) stimulated increases in insulin release"}]}
{"molecule": "C=C(C)[C@H]1CN[C@H](C(=O)O)[C@H]1CC(=O)O", "note": "[kainate]", "values": [{"measurement": "glucagon release / glucagon secretion", "setting": "human islets [1]", "result": "stimulated large increases in glucagon secretion; also recorded: Increases in glucagon release could also be elicited"}, {"measurement": "glucagon release / glucagon secretion", "setting": "human islets [1]; listed as Kainate", "result": "elicited strong glucagon secretion"}, {"measurement": "glucagon immunoreactive cells that responded to kainate", "setting": "[2]", "result": "7 out of 9"}, {"measurement": "[Ca^2+]i response", "setting": "[2]", "result": "large increases in [Ca^2+]i"}, {"measurement": "kainate responsive cells that were glucagon immunoreactive", "setting": "[2]; [Ca^2+]i imaging experiments", "result": "> 75", "unit": "%"}, {"measurement": "glutamate-responding cells that also responded to kainate", "setting": "[2]; kainate 100 μM", "result": "12 out of 12"}, {"measurement": "insulin immunoreactive cells that responded to kainate", "setting": "[2]; n=8", "result": "None"}, {"measurement": "whole-cell inward currents", "setting": "[9]", "result": "elicited inward currents"}, {"measurement": "glutamate release (resorufin fluorescence)", "setting": "monkey islets [10]", "result": "induced significant glutamate release; also recorded: strongly released glutamate"}, {"measurement": "glucagon release / secretion", "setting": "mouse islets [5]", "result": "stimulated glucagon secretion"}, {"measurement": "reduction of amplitude of kainate-induced glucagon release in absence of β cells", "setting": "mouse islets [11]; kainate 100 μM for 5 min", "result": 55, "unit": "%"}, {"measurement": "kainate potentiation of glucagon release in absence versus presence of β cells", "setting": "mouse islets [11]", "result": "not as effective in potentiating glucagon release; also recorded: strongly reduced glucagon responses"}, {"measurement": "insulin release", "setting": "human islets [7]", "result": "Neither kainate (100 μM), glutamate (100 μM), nor AMPA (100 μM) stimulated increases in insulin release"}, {"measurement": "insulin release", "setting": "monkey islets [8]", "result": "Neither kainate (100 μM), glutamate (100 μM), nor AMPA (100 μM) stimulated increases in insulin release"}]}
